We go through two compounds from article PMC4128814, “A High Throughput Screen Identifies Potent and Selective Inhibitors to Human Epithelial 15-Lipoxygenase-2” (PLoS ONE, 2014).

By pIC50 is commonly meant the negative decadic logarithm of the IC50, by convention in mol/L.

SMILES strings stand for the structures. pIC50: −log10 of the molar value.

Common to all, as to format: biochemical
One test addresses T1, 12-LOX (Homo sapiens, UniProt P18054).
T1 construct: His6 (N); made in house
T1 sequence (P18054 1-663): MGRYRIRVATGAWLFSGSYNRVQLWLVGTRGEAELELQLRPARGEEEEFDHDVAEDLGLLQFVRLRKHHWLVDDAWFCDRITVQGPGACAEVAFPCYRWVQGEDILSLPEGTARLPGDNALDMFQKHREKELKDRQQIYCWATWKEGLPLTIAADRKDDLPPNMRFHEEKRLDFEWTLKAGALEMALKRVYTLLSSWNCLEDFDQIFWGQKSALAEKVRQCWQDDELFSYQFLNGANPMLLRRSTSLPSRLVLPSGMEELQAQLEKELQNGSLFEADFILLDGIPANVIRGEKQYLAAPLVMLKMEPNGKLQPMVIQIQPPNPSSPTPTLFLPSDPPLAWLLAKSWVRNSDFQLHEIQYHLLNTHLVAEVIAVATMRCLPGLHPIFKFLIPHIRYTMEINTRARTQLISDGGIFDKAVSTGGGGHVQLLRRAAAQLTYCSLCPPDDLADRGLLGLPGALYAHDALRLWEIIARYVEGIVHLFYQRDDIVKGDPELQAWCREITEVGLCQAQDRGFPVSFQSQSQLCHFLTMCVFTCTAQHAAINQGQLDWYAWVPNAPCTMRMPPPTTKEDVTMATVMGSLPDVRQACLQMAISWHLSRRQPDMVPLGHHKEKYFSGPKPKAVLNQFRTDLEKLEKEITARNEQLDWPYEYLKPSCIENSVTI
Description: Lipoxygenase UV-Vis assay, 12-LOX. To be noted: estimated from one inhibitor point at 20 µM; 10 µM AA. How it is done:
(§1) Human leukocyte 5-lipoxygenase (5-LOX) was expressed as a non-tagged protein and used as a crude ammonium sulfate protein fraction, as published previously, [20].
(§2) The reactions were initiated by adding 200 nM 15-LOX-2, 30 nM 12-LOX, 40 nM 15-LOX-1, or approximately 100–300 nM (5–10 µL) of 5-LOX crude extract to a cuvette with 2 mL reaction buffer, constantly stirred using a magnetic stir bar at room temperature (22°C). Reaction buffers used for various LOX isozymes were as follows: 25 mM HEPES (pH 7.3), 0.3 mM CaCl2, 0.1 mM EDTA, 0.2 mM ATP, 0.01% Triton X-100, 10 µM AA for the crude, ammonium sulfate precipitated 5-LOX; and 25 mM HEPES (pH 7.5), 0.01% Triton X-100, 10 µM AA for 15-LOX-2, 15-LOX-1, and 12-LOX. The substrate concentration was quantitatively determined by allowing the enzymatic reaction to go to completion in the presence of 15-LOX-2. […] The data were then plotted against inhibitor concentration, followed by a hyperbolic saturation curve fit (assuming total enzyme concentration [E]≪IC50). […] All inhibitors were stored at −20°C in DMSO. NDGA was utilized as positive control for the selectivity assays for the various LOX isozymes.

In the next test the target is T2, 5-LOX (Homo sapiens, UniProt P09917).
T2 construct: made in house
T2 sequence (P09917 1-674): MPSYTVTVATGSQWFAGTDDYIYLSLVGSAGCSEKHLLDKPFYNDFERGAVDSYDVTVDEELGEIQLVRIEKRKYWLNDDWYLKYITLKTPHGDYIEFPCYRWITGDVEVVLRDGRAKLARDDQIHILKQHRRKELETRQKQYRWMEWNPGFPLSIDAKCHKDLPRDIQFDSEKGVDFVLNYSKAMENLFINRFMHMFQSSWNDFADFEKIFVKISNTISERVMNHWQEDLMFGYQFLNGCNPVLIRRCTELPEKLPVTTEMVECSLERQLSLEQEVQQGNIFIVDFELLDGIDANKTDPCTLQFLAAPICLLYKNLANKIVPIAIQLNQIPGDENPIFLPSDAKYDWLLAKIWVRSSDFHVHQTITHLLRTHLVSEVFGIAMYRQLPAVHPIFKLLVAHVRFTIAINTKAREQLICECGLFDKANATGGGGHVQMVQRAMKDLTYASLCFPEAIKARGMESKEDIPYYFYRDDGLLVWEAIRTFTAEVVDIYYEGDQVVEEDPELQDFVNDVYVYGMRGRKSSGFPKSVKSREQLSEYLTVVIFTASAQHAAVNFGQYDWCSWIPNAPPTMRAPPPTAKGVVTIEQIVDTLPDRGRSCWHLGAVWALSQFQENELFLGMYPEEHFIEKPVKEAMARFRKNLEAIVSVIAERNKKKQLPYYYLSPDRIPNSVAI
Description: Lipoxygenase UV-Vis assay, 5-LOX crude extract. To be noted: estimated from one inhibitor point at 20 µM; 10 µM AA. How it is done:
as §1, §2

The next test addresses T3, ovine COX-1 (Ovis aries, UniProt P05979).
T3 construct: purchased Cayman Chemical
T3 sequence (P05979 25-600): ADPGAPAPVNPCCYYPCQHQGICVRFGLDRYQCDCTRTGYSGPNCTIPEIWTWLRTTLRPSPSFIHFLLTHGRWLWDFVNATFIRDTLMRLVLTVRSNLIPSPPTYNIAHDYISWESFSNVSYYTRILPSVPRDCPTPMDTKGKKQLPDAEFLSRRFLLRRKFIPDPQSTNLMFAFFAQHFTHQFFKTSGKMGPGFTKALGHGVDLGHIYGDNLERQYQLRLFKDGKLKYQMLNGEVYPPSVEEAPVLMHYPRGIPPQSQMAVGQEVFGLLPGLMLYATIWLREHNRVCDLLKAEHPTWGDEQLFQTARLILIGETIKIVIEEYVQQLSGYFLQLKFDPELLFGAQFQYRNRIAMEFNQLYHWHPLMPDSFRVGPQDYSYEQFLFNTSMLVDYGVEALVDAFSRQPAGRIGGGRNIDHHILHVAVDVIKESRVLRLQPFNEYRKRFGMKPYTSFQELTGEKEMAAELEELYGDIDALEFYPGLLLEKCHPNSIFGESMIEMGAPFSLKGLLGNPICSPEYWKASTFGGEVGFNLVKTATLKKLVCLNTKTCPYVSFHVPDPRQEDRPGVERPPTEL
Put plainly: Cyclooxygenase assay (oxygen electrode), COX-1. As to conditions: estimated from one inhibitor point at 20 µM; 100 µM AA. How it is done: Cyclooxygenase activity assay was performed as previously described. Approximately 3 µg of either ovine COX-1 (COX-1) or human recombinant COX-2 (COX-2) (Cayman Chemical) were added to buffer containing 0.1 M Tris-HCl buffer (pH 8.0), 5 mM EDTA, 2 mM phenol and 1 µM hematin at 37°C. The selected inhibitors were added to the reaction cell, followed by an incubation of 5 minutes with either of the COX enzymes. The reaction was then initiated by adding 100 µM AA in the reaction cell, as indicated in enzymatic protocol (Cayman Chemicals). Data were collected using a Hansatech DW1 oxygen electrode and the consumption of oxygen was recorded. Indomethacin and the solvent (DMSO), were used as positive and negative controls, respectively, and the percent inhibition of the enzyme was calculated by comparing the rates of the samples to the controls.

`Cc1ccc(CSc2ncn(-c3ccccc3)n2)cc1` [MLS000536924]: the pIC50 on 12-LOX, at 5-LOX and on ovine COX-1 was below 4.00 throughout.

`Clc1ccc(-c2nnc(C3CCCCC3)o2)cc1` [MLS000545091]: the values for the negative logarithm of the IC50 (pIC50) at 12-LOX, at 5-LOX and on ovine COX-1 were below 4.00, below 4.30 and below 4.30, respectively.
